Assays:
[1] = tested on: multidrug resistant strain of Plasmodium yoelii Nigeriensis; assay: Antimalarial activity against multidrug resistant P. yoelii in swiss mice; type: in vivo; conditions: for % Suppression on Day 4: 4 consecutive days (day 0-3), parasitaemia vs vehicle control; for Cured/treated: observed till day 28

Row | melting point | SMILES | % Suppression on Day 4 ([1]; i.m., 96 mg/kg) | Cured/treated ([1]; i.m., 96 mg/kg) | % Suppression on Day 4 ([1]; oral, 96 mg/kg) | Cured/treated ([1]; oral, 96 mg/kg) | % Suppression on Day 4 ([1]; oral, 48 mg/kg) | Cured/treated ([1]; oral, 48 mg/kg)
1 | 92 to 95 °C | C(=CC1COC(c2ccccc2)OO1)c1ccc(-c2ccccc2)cc1 (stereo not shown) |  |  |  |  |  | 
2 | 102 to 104 °C | Clc1ccc(-c2ccc(C=CC3COC4(CCCC4)OO3)cc2)cc1 (stereo not shown) |  |  |  |  |  | 
3 | 96 to 98 °C | Clc1ccc(-c2ccc(C=CC3COC4(CCCCC4)OO3)cc2)cc1 (stereo not shown) |  |  |  |  |  | 
4 |  | C=C(c1ccc(C2CCCCCC2)cc1)C1COC2(OO1)C1CC3CC(C1)CC2C3 (stereo not shown) [Trioxane 9c] | 74.57% | 0/5 | 100% | 5/5 |  | 
5 |  | C=C(c1ccc(C2CCCCCCC2)cc1)C1COC2(OO1)C1CC3CC(C1)CC2C3 (stereo not shown) [Trioxane 9d] | 60.12% | 0/5 | 100% | 5/5 |  | 
6 |  | C=C(c1ccc(-c2ccccc2)cc1)C1COC2(OO1)C1CC3CC(C1)CC2C3 (stereo not shown) [Trioxane 9e] | 100% | 0/6 | 100% | 6/6 |  | 
7 |  | C=C(c1ccc(-c2ccc(Br)cc2)cc1)C1COC2(OO1)C1CC3CC(C1)CC2C3 (stereo not shown) [Trioxane 9f] | 92.4% | 2/5 |  |  | 100% | 5/5
8 |  | C=C(c1ccc(-c2ccc(Cl)cc2)cc1)C1COC2(OO1)C1CC3CC(C1)CC2C3 (stereo not shown) [Trioxane 9g] | 100% |  | 100% | 3/5 |  | 
